Measured values from a melting point compilation (Tetko et al.; mined from patent text by program, amines drawn as free bases though some values may be those of a salt).

Row | SMILES | melting point [°C]
1 | Cc1ccc(-c2ccc(S(C)(=O)=O)cc2)n1-c1ccc(-c2ccoc2)cc1 | 200 to 202
2 | CCOC(=O)c1cn(-c2ccc(OC)cc2)[nH]c1=O | 125 to 127
3 | O=C(O)CNC1Cc2ccccc2C1 | 211 to 214
4 | CN1C(=O)C2(COc3cc4c(cc32)OCCO4)c2c(C(=O)NCc3ccc(F)cc3)cccc21 (stereo not given) | 149 to 150
5 | CC(=O)c1ccc(Cl)c(S(N)(=O)=O)c1 | 175 to 176
6 | COC(=O)C1=NNC(C)=C(C(=O)OC)C1c1ccccc1 (stereo not given) | 187
7 | CCCCC(=O)c1cc(C(=O)O)c2cc(Cc3ccc(F)cc3)cnc2c1O | 227 to 229
8 | COC(F)(F)C(F)(F)C1(C(F)(F)C(F)(F)OC)OCCO1 | 30 to 40
9 | CCOc1cc(C)c(CCl)c(C)c1C | 63 to 64
10 | Cc1cccc(C(=O)c2[nH]c3ccc(Cl)cc3c2CC(=O)O)n1 | 225 to 226
11 | CC(=O)NC[C@H]1CN(c2cc(F)c(N3CCC(n4nnc(N5CCN(C#N)CC5)n4)CC3)c(F)c2)C(=O)O1 | 198 to 200
12 | O=C(CCCCCNC(=O)Cc1ccc(-c2ccccc2)cc1)NO | 226 to 227
13 | CN(C)S(=O)(=O)c1cc(C(=O)CBr)ccc1Cl | 98
14 | COc1ccnc(CCc2nc3cc(-c4ccc(S(=O)(=O)N5CCC6(CC5)OCCO6)cc4)cnc3[nH]2)c1 | 121 to 122
15 | CNn1cc(C(=O)O)c(=O)c2cc(F)c(Cl)cc21 | 275 to 279
16 | O=C1c2ccccc2C(=S)N1C1CC=CCC1 (stereo not given) | 93
17 | O=C(Nc1noc2ccccc12)N1CCN(c2nc(-c3ccccc3)no2)CC1 | 215 to 216
18 | COC(=O)c1ccc(CNS(C)(=O)=O)cc1S(=O)(=O)Cl | 93 to 94
19 | NC(=O)COc1ccc(CCNS(=O)(=O)c2ccc(Cl)cc2)cc1 | 158 to 159
20 | Cc1cc(SCc2sc(-c3ccc(C(F)(F)F)cc3)nc2C)c2c(c1OCC(=O)O)CCO2 | 157 to 158
21 | O=C(O)CN1CCN(CCNC(=O)c2cc3ccc(C4OC(CO)C(O)C(O)C4O)cc3oc2=O)CC1 (stereo not given) | 140 to 143
22 | CCOC(=O)C(=NO)c1cnsn1 | 60 to 66
23 | FC(F)(F)c1cccnc1-n1c(/C=C/c2ccccc2)nc2ccccc21 | 156 to 157
24 | CC1(C)C(C(=O)O)C1C(OS(C)(=O)=O)C(Br)(Br)Br (stereo not given) | 168
25 | O=C1Nc2cccc(Cl)c2C(=O)N2CC[C@@H]12 | 225 to 228

Row | SMILES | melting point [°C]
26 | O=C(NCC(=O)N1c2ccccc2N(Cc2ccccc2)C(=O)[C@H]2CCC[C@H]21)c1ccncc1 (relative stereo) | 196 to 199
27 | OCCCCCCCCCCCC(F)(F)C(F)(F)F | 41 to 43
28 | O=C1CC=C(c2ccccc2F)c2cc(Cl)ccc2N1 | 214 to 215
29 | CCOc1nc(N)nc(C(F)(F)F)n1 | 124 to 125
30 | Cc1nnc(-c2ccc3occ(-c4ccccc4)c3c2)o1 | 117 to 118
31 | COc1ccc(-n2nc(Sc3ccc(C)cc3)c(C)c(C#N)c2=O)cc1 | 148 to 149
32 | COc1cc(COc2nn(-c3ccccc3)cc2/C=C/C2=NCCO2)ccc1OCc1nc(-c2ccco2)oc1C | 162 to 163
33 | CN1CCC(CCCC2CCN(CC(=O)N3c4ccccc4C(=O)Nc4cccnc43)CC2)CC1 | 192 to 194
34 | CCOCc1nc2c(N)nc3cc(OCc4nc5ccccc5s4)ccc3c2n1CC(C)(C)NS(C)(=O)=O | 258 to 259
35 | Cc1cc(-c2nnc3c4ccccc4c(OCc4ccc5ccccc5n4)nn23)no1 | 223 to 225
36 | CN1CCC(c2c(O)cc(O)c3c(=O)cc(-c4ccc(O)cc4Cl)oc23)C1CO (stereo not given) | > 300
37 | Fc1ccc(-c2cc3ccccc3[nH]c2=S)cc1 | 259 to 262
38 | O=[N+]([O-])c1cc(N=Nc2ccc(S(=O)(=O)F)cc2)cc(Cl)c1O | 129 to 133
39 | Oc1ccc2c(-c3cc(F)ccc3F)noc2c1Cl | 256 to 257
40 | Cc1c(NC(=O)CC(C)(C)C)c(C)c2c(c1-c1cccc(N3CCCC3)c1)OCC2c1ccc(C(C)C)cc1 (stereo not given) | 206 to 207
41 | C=CCN1CCN(C2=NC3(C=CC(=O)C=C3)C(c3ccccc3)=C2)CC1 | 171
42 | N#CCCNC(=O)c1cccc(-c2ccc3c(c2)C(NCc2ccc(Cl)cc2Cl)CC3)c1 (stereo not given) | 126 to 130
43 | CCOc1ccc([N+](=O)[O-])c(Nc2ccc(OC)cc2)c1 | 109
44 | CC1CC(=O)N(c2cc(C(C)(C)C)c(O)c(C(C)(C)C)c2)C1 (stereo not given) | 157 to 159
45 | Cc1ccccc1-c1cc(-c2ccc(F)cc2)c(C=C(Br)Br)c(C(C)C)n1 | 108 to 110
46 | CC(C)Oc1cccc(-c2nc3ncccc3o2)c1 | 68.5 to 70.5
47 | O=C(O)c1ccc(-c2nc(-c3ccc(OC(F)(F)F)cc3)cs2)cc1 | 245 to 246
48 | CCOC(=O)CC(=O)c1c(C(=O)OC)n(C)c2cc(Cl)ccc12 | 250 to 252
49 | Cc1cc(CCCCCOc2ccc(C3=NCCO3)cc2CO)on1 | 140 to 141
50 | CCCCCc1ccc(OCC(O)CC#CCCCC(=O)O)cc1 (stereo not given) | 54 to 57

Row | SMILES | melting point [°C]
51 | CC(C)n1nc(-c2c(-c3ccccc3)nc(N)nc2N2CCNCC2)ccc1=O | 254 to 256
52 | COc1ccc(Cl)cc1C(=O)NCc1ccc(CC(=O)O)cc1 | 140 to 141
53 | CC(C)=CCCC(C)=CCOc1ccc(C(=O)NCCNc2cccnc2)cc1 | 88.5 to 89.2
54 | CN(C)C(=O)C1Cc2ccc(N)cc2NC1=O (stereo not given) | 219 to 223
55 | Brc1ccc(N2CCNCC2)nc1 | 70.6
56 | CCCCNC1=CC(=O)c2c(OC)ccc(OC)c2C1=O | 104 to 105
57 | CCOC(=O)COc1ccc2c(c1)CCC2=O | 59 to 61
58 | O=C(Nc1ccccc1)N(CCCn1ccnc1)C1=Nc2cccc3cccc1c23 | 240 to 250
59 | O=C(Nc1ccc(Oc2ccnc(N3CCC(F)(F)CC3)n2)c2ccccc12)c1cc(F)cc(N2CCCCC2)c1 | 172 to 174
60 | CC(C)(C#N)c1ccc(C(=O)c2cccs2)cc1 | 139
61 | CC(=O)N1CCc2cc(S(=O)(=O)n3c(CCC(=O)O)cc4cc(C(F)(F)F)ccc43)ccc21 | 205 to 207
62 | O=C(/C=C/c1ccc2ccccc2c1)Nc1cc(Cl)ccc1NS(=O)(=O)c1ccccc1 | 220 to 223
63 | COc1cc2c(cc1OC)CN(CCC1OCC(C)(C)c3cc(OC)c(OC)cc31)CC2 (stereo not given) | 100 to 105
64 | CCn1c(-c2ccnc(N)c2)nnc1C(C)(C)Oc1c(F)cc(Cl)cc1F | 150
65 | COc1noc2c1CN(C(C)=O)CC2 | 40 to 42
66 | CC(=O)N1CCN(Cc2cc(C)c(O)c(C)c2)CC1 | 150 to 151
67 | COc1ccc2ccc(N3C(=O)c4ccccc4C3OC(=O)CCC(C)C)nc2n1 (stereo not given) | 133
68 | COC[C@H](O)CNc1ccc2cc(OCc3ccccc3)ccc2c1 | 105 to 106
69 | COc1ccc(Cl)cc1C(=O)N(C)CCc1ccc(CCC(=O)O)cc1 | 152 to 153
70 | COc1cccc2c1C(=O)c1sc(-c3ccccc3)nc1C2=O | > 260
71 | Oc1ccccc1Oc1ccc(Cl)cn1 | 97 to 100
72 | CC(C)n1nc(-c2sc(NC(=O)N(C)C)nc2-c2ccccc2)ccc1=O | 199 to 200
73 | COC(=O)C1=C(C)NC2=C(C(=O)CN(CC(O)COc3cccc(C)c3C)C2)C1c1c(F)ccc(Cl)c1Cl (stereo not given) | 190 to 193
74 | CC(=O)Nc1nc(CCc2ccc(CCl)cc2)cs1 | 145 to 146
75 | CC(CN1CCCC1)N1c2ccccc2Sc2ccc(C(=O)NCCC(C)(C)C)cc21 (racemic) | 138

Row | SMILES | melting point [°C]
76 | NC(=O)n1ccc(-c2ccc(Oc3ccc(N)cc3)cc2)n1 | 158 to 160
77 | O=C1N(Cc2ncccc2C(F)(F)F)c2ccccc2C12COc1c2ccc2c1OCCO2 (stereo not given) | 206 to 207
78 | COC(CN(C)C(=O)Nc1nnc(C(C)Oc2ccccc2Cl)s1)OC (stereo not given) | 101 to 104
79 | Nc1nc(Cl)cc(OCC2(CO)CCC2)n1 | 125 to 127
80 | CC(C)C[C@H](NC(=O)OC(C)(C)C)C(=O)N[C@H](C(=O)NN)[C@@H](C)O | 146 to 148
81 | COCOCc1cccc(-c2ccc(C(=O)O)cc2)c1 | 126 to 127
82 | CC(O)CN1CCN(c2cccccc2=O)CC1 (stereo not given) | 92 to 93
83 | CCC(=O)OC(C)c1ccc(O)cc1 (single isomer, unassigned; (+)) | 71 to 72
84 | CCN1CCc2ccc(Nc3ncc([N+](=O)[O-])c(Nc4ccccc4C(=O)NC)n3)cc2CC1 | 222 to 225
85 | O=C(Cl)c1ncn(Cc2ccc(Cl)c(Cl)c2)c1C(=O)Cl | 126 to 128
86 | CS(=O)(=O)c1ccc(-c2nn3c(-c4ccccc4)coc3c2-c2ccc(F)cc2)cc1 | 151 to 154
87 | COc1cc2c(cc1OC(C)C)-c1cc3c(n1CC2)C(=O)N(C(C)(C)C)CCOC3 | 125 to 127
88 | O=S(=O)(c1ccccc1)N1CCC(C(NCCc2ccccc2)c2ccc(F)cc2)CC1 (stereo not given) | 115 to 117
89 | Cc1ccc(Oc2ccc(C(=O)O)cc2)cc1 | 175
90 | CC(C)(C)c1cc(C(c2cc(C(C)(C)C)c(O)c(C(C)(C)C)c2)c2ccco2)cc(C(C)(C)C)c1O | 158 to 159
91 | CC(Oc1ccc(Cl)nc1Cl)C(=O)O (stereo not given) | 128 to 131
92 | Cc1ccc(-c2n[nH]cc2C=O)s1 | 97 to 99
93 | CCCCc1ccc(C(=O)Oc2ccc(C#N)c(F)c2)nc1 | 45.1 to 46.1
94 | O=C(OCc1ccccc1)N1CCc2c(sc3nc(CCl)c(Cl)c(-c4ccc(OCc5ccccc5)cc4)c23)C1 | 144 to 145
95 | Cn1c2c(ccc1=O)C(NCCc1ccc(Cl)cc1)CCC2 (stereo not given) | 110 to 112
96 | COC(=O)c1cc(C(=O)NCC(C)(C)C)ccc1-c1cc(C(=O)OC(C)(C)C)cc(F)c1C | 68 to 74
97 | O=C(NC[C@H]1CN(c2ccc(N3CCC4(CC3)OCCO4)c(F)c2)C(=O)O1)C(Cl)Cl | 175 to 178
98 | Cc1nn(-c2ccc(Cl)cc2)c(=O)[nH]1 | 218 to 219
99 | C(=C\c1ncc(-c2cnc(-c3ccccc3)nc2)[nH]1)/c1cccnc1 | 258
100 | NC(=O)c1nc(-c2cccc(O)c2)nc2c1[nH]c(=O)n2CC1CCOCC1 | 363 to 365
